Data taken from US6017923A, “Carbo-acyclic nucleoside derivatives as antiviral and antineoplastic agents” (Hoechst Marion Roussel, Inc., priority 1996, dated 2000).
Converted amounts (≈) assume the structure as drawn.

The molecules below were run on HeLa cells (assay: Inhibitory effects of compounds on HeLa cell proliferation in vitro (96 h)). Conditions: Homo sapiens, exponentially growing, concentration at 50% inhibition of cell growth.
Assay type: cell-based
Description: INHIBITORY EFFECTS OF COMPOUNDS ON HeLa CELL PROLIFERATION The inhibitory effect of various compounds of formula (1) on HeLa cell proliferation invitro was determined according to the method described by Sunkara et al. [J. Natl. Cancer Instit. 70, 505-509 (1983)]. Exponentially growing HeLa cells were incubated in the presence or absence of various concentrations of test compounds for 96 hours. IC50 values were calculated which represent the test compound concentration at 50% inhibition of cell growth.

Compound	IC50 [µg/mL]
Nc1ncnc2c1ncn2CC/C(=C/F)CO [Compound B, (Z)-4-(Adenin-9-yl)-2-hydroxymethyl-1-fluorobut-1-ene]	1 (≈ 4.22 µM)
Nc1ncnc2c1ncn2CC/C(=C\F)CO [Compound A, (E)-4-(Adenin-9-yl)-2-hydroxymethyl-1-fluorobut-1-ene]	0.25 (≈ 1.05 µM)
C=C(CO)CCn1cnc2c(N)ncnc21 [Compound C, 4-(Adenin-9-yl)-2-hydroxymethylbut-1-ene]	0.6 (≈ 2.74 µM)
